In US10597388B2, “Pyridazinone herbicides” (FMC CORPORATION, priority 2014, dated 2020):

Key:
Assay in all cases: Test C greenhouse herbicide test, pre- and postemergence
Format in all cases: in vivo
[1] = system: ryegrass, Italian (Italian ryegrass, Lolium multiflorum)
How it was run: (§1)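 Percent-control ratings (0 none, 100 complete) came from visual comparison with controls held alongside in the greenhouse for 13–15 d. Treatments covered soil application at sowing and foliar application to young plants 2–18 cm tall.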

corn (Zea mays) = system: corn (Zea mays)
How it was run: as §1

[2] = system: blackgrass (Alopecurus myosuroides)
How it was run: as §1

[3] = system: johnsongrass (Sorghum halepense)
How it was run: as §1

[4] = system: crabgrass, large (large crabgrass, Digitaria sanguinalis)
How it was run: as §1

[5] = system: oilseed rape (Brassica napus)
How it was run: as §1

[6] = system: lambsquarters (Chenopodium album)
How it was run: as §1

[7] = system: foxtail, giant (giant foxtail, Setaria faberii)
How it was run: as §1

[8] = system: nutsedge, yellow (yellow nutsedge, Cyperus esculentus)
How it was run: as §1

[9] = system: pigweed (Amaranthus retroflexus)
How it was run: as §1

[10] = system: morningglory (Ipomoea coccinea)
How it was run: as §1

[11] = system: waterhemp (common waterhemp, Amaranthus rudis)
How it was run: as §1

[12] = system: galium (catchweed bedstraw, Galium aparine)
How it was run: as §1

[13] = system: velvetleaf (Abutilon theophrasti)
How it was run: as §1

[14] = system: ragweed (common ragweed, Ambrosia elatior)
How it was run: as §1

[15] = system: barnyardgrass (Echinochloa crus-galli)
How it was run: as §1

[16] = Postemergence, 31 g ai/ha, scale 0 to 100 (0 no effect, 100 complete control)
[17] = Postemergence, 125 g ai/ha, scale 0 to 100, 0 is no effect, 100 is complete control
[18] = Postemergence, 250 g ai/ha, scale 0 to 100, 0 no effect, 100 complete control, 13 to 15 d
[19] = Preemergence, 31 g ai/ha, scale 0 to 100, 0 is no effect, 100 is complete control
[20] = Preemergence, 62 g ai/ha, scale 0 to 100, 0 is no effect, 100 is complete control
[21] = Preemergence, 125 g ai/ha, scale 0 to 100, 0 is no effect, 100 is complete control
[22] = Preemergence, 250 g ai/ha, scale 0 to 100 (0 no effect, 100 complete control)
[23] = postemergence, 62 g ai/ha, scale 0 to 100, 0 no effect, 100 complete control

Question: For `Cc1nn(C)c(=O)c(-c2c(C)sc3ccc(Cl)cc23)c1O` [Compound 104], which “Plant response rating, Ryegrass, Italian” value [1, 16] is on record?
Answer: 90

Question: And the “Plant response rating, Ryegrass, Italian” value [1, 17]?
Answer: 90

Question: And the “Plant response rating, Ryegrass, Italian” value [1, 18]?
Answer: 90

Question: What about the “Plant response rating, Ryegrass, Italian” value [1, 19] of the same compound?
Answer: 55

Question: And the “Plant response rating, Ryegrass, Italian” value [1, 20]?
Answer: 85

Question: And the “Plant response rating, Ryegrass, Italian” value [1, 21]?
Answer: 90

Question: And the “Ryegrass, Italian plant response rating” value [1, 22]?
Answer: 95

Question: What about the “Plant response rating, Corn” value (corn (Zea mays); [16]) of the same compound?
Answer: 5

Question: And the “Plant response rating, Corn” value (corn (Zea mays); [17])?
Answer: 50

Question: And the “Plant response rating, Corn” value (corn (Zea mays); [18])?
Answer: 30

Question: And the “Plant response rating, Corn” value (corn (Zea mays); [19])?
Answer: 5

Question: What about the “Plant response rating, Corn” value (corn (Zea mays); [20]) of the same compound?
Answer: 0

Question: And the “Plant response rating, Corn” value (corn (Zea mays); [21])?
Answer: 15

Question: And the “Corn plant response rating” value (corn (Zea mays); [22])?
Answer: 10

Question: What about the “Corn plant response rating” value (corn (Zea mays); [23]) of the same compound?
Answer: 80

Question: What about the “Plant response rating, Blackgrass” value [2, 16] of the same compound?
Answer: 15

Question: What about the “Plant response rating, Blackgrass” value [2, 17] of the same compound?
Answer: 50

Question: And the “Plant response rating, Blackgrass” value [2, 18]?
Answer: 55

Question: What about the “Plant response rating, Blackgrass” value [2, 19] of the same compound?
Answer: 5

Question: And the “Plant response rating, Blackgrass” value [2, 20]?
Answer: 15

Question: And the “Plant response rating, Blackgrass” value [2, 21]?
Answer: 30

Question: What about the “Blackgrass plant response rating” value [2, 22] of the same compound?
Answer: 60

Question: What about the “Blackgrass plant response rating” value [2, 23] of the same compound?
Answer: 35

Question: And the “Plant response rating, Johnsongrass” value [3, 16]?
Answer: 10

Question: And the “Plant response rating, Johnsongrass” value [3, 17]?
Answer: 5

Question: What about the “Plant response rating, Johnsongrass” value [3, 18] of the same compound?
Answer: 5

Question: What about the “Plant response rating, Johnsongrass” value [3, 19] of the same compound?
Answer: 10

Question: And the “Plant response rating, Johnsongrass” value [3, 20]?
Answer: 20

Question: And the “Plant response rating, Johnsongrass” value [3, 21]?
Answer: 20

Question: And the “Johnsongrass plant response rating” value [3, 22]?
Answer: 30

Question: And the “Plant response rating, Crabgrass, Large” value [4, 16]?
Answer: 20

Question: And the “Plant response rating, Crabgrass, Large” value [4, 17]?
Answer: 35

Question: What about the “Plant response rating, Crabgrass, Large” value [4, 18] of the same compound?
Answer: 55

Question: What about the “Plant response rating, Crabgrass, Large” value [4, 19] of the same compound?
Answer: 40

Question: And the “Plant response rating, Crabgrass, Large” value [4, 20]?
Answer: 55

Question: What about the “Plant response rating, Crabgrass, Large” value [4, 21] of the same compound?
Answer: 55

Question: What about the “Crabgrass, Large plant response rating” value [4, 22] of the same compound?
Answer: 60

Question: And the “Crabgrass, Large plant response rating” value [4, 23]?
Answer: 30

Question: What about the “Plant response rating, Oilseed Rape” value [5, 16] of the same compound?
Answer: 85

Question: And the “Plant response rating, Oilseed Rape” value [5, 17]?
Answer: 95

Question: And the “Plant response rating, Oilseed Rape” value [5, 18]?
Answer: 98

Question: And the “Plant response rating, Oilseed Rape” value [5, 19]?
Answer: 5

Question: What about the “Plant response rating, Oilseed Rape” value [5, 20] of the same compound?
Answer: 30

Question: And the “Plant response rating, Oilseed Rape” value [5, 21]?
Answer: 85

Question: What about the “Oilseed Rape plant response rating” value [5, 22] of the same compound?
Answer: 95

Question: And the “Plant response rating, Lambsquarters” value [6, 16]?
Answer: 90

Question: What about the “Plant response rating, Lambsquarters” value [6, 17] of the same compound?
Answer: 100

Question: And the “Plant response rating, Lambsquarters” value [6, 18]?
Answer: 100

Question: And the “Plant response rating, Lambsquarters” value [6, 19]?
Answer: 85

Question: What about the “Plant response rating, Lambsquarters” value [6, 20] of the same compound?
Answer: 85

Question: What about the “Plant response rating, Lambsquarters” value [6, 21] of the same compound?
Answer: 95

Question: What about the “Lambsquarters plant response rating” value [6, 22] of the same compound?
Answer: 95

Question: What about the “Plant response rating, Foxtail, Giant” value [7, 16] of the same compound?
Answer: 50

Question: What about the “Plant response rating, Foxtail, Giant” value [7, 17] of the same compound?
Answer: 75

Question: What about the “Plant response rating, Foxtail, Giant” value [7, 18] of the same compound?
Answer: 85

Question: And the “Plant response rating, Foxtail, Giant” value [7, 19]?
Answer: 75

Question: And the “Plant response rating, Foxtail, Giant” value [7, 20]?
Answer: 85

Question: And the “Plant response rating, Foxtail, Giant” value [7, 21]?
Answer: 75

Question: What about the “Foxtail, Giant plant response rating” value [7, 22] of the same compound?
Answer: 100

Question: And the “Plant response rating, Nutsedge, Yellow” value [8, 16]?
Answer: 55

Question: And the “Plant response rating, Nutsedge, Yellow” value [8, 17]?
Answer: 60

Question: And the “Plant response rating, Nutsedge, Yellow” value [8, 18]?
Answer: 75

Question: And the “Plant response rating, Nutsedge, Yellow” value [8, 19]?
Answer: 30

Question: And the “Plant response rating, Nutsedge, Yellow” value [8, 20]?
Answer: 45

Question: And the “Plant response rating, Nutsedge, Yellow” value [8, 21]?
Answer: 75

Question: And the “Nutsedge, Yellow plant response rating” value [8, 22]?
Answer: 85

Question: What about the “Plant response rating, Pigweed” value [9, 16] of the same compound?
Answer: 95

Question: And the “Plant response rating, Pigweed” value [9, 17]?
Answer: 100

Question: And the “Plant response rating, Pigweed” value [9, 18]?
Answer: 100

Question: And the “Plant response rating, Pigweed” value [9, 19]?
Answer: 100

Question: And the “Plant response rating, Pigweed” value [9, 20]?
Answer: 100

Question: And the “Plant response rating, Pigweed” value [9, 21]?
Answer: 100

Question: What about the “Pigweed plant response rating” value [9, 22] of the same compound?
Answer: 100

Question: What about the “Plant response rating, Morningglory” value [10, 16] of the same compound?
Answer: 98

Question: What about the “Plant response rating, Morningglory” value [10, 17] of the same compound?
Answer: 100

Question: What about the “Plant response rating, Morningglory” value [10, 18] of the same compound?
Answer: 100

Question: And the “Plant response rating, Morningglory” value [10, 19]?
Answer: 80

Question: And the “Plant response rating, Morningglory” value [10, 20]?
Answer: 95

Question: What about the “Plant response rating, Morningglory” value [10, 21] of the same compound?
Answer: 100

Question: And the “Morningglory plant response rating” value [10, 22]?
Answer: 98

Question: What about the “Plant response rating, Waterhemp” value [11, 16] of the same compound?
Answer: 70

Question: And the “Plant response rating, Waterhemp” value [11, 17]?
Answer: 100

Question: What about the “Plant response rating, Waterhemp” value [11, 18] of the same compound?
Answer: 95

Question: And the “Plant response rating, Waterhemp” value [11, 19]?
Answer: 75

Question: And the “Plant response rating, Waterhemp” value [11, 20]?
Answer: 90

Question: What about the “Plant response rating, Waterhemp” value [11, 21] of the same compound?
Answer: 100

Question: What about the “Waterhemp plant response rating” value [11, 22] of the same compound?
Answer: 100

Question: And the “Plant response rating, Galium” value [12, 16]?
Answer: 95

Question: And the “Plant response rating, Galium” value [12, 17]?
Answer: 98

Question: And the “Plant response rating, Galium” value [12, 18]?
Answer: 98

Question: What about the “Plant response rating, Galium” value [12, 19] of the same compound?
Answer: 90

Question: And the “Plant response rating, Galium” value [12, 20]?
Answer: 85

Question: And the “Plant response rating, Galium” value [12, 21]?
Answer: 90

Question: And the “Galium plant response rating” value [12, 22]?
Answer: 98

Question: What about the “Plant response rating, Velvetleaf” value [13, 16] of the same compound?
Answer: 50

Question: And the “Plant response rating, Velvetleaf” value [13, 17]?
Answer: 98

Question: And the “Plant response rating, Velvetleaf” value [13, 18]?
Answer: 90

Question: And the “Plant response rating, Velvetleaf” value [13, 19]?
Answer: 40

Question: What about the “Plant response rating, Velvetleaf” value [13, 20] of the same compound?
Answer: 80

Question: What about the “Plant response rating, Velvetleaf” value [13, 21] of the same compound?
Answer: 90

Question: What about the “Velvetleaf plant response rating” value [13, 22] of the same compound?
Answer: 90

Question: What about the “Plant response rating, Ragweed” value [14, 16] of the same compound?
Answer: 85

Question: And the “Plant response rating, Ragweed” value [14, 17]?
Answer: 98

Question: And the “Plant response rating, Ragweed” value [14, 18]?
Answer: 100

Question: And the “Plant response rating, Ragweed” value [14, 19]?
Answer: 85

Question: And the “Plant response rating, Ragweed” value [14, 20]?
Answer: 90

Question: And the “Plant response rating, Ragweed” value [14, 21]?
Answer: 95

Question: And the “Ragweed plant response rating” value [14, 22]?
Answer: 100

Question: And the “Plant response rating, Barnyardgrass” value [15, 16]?
Answer: 20

Question: And the “Plant response rating, Barnyardgrass” value [15, 17]?
Answer: 45

Question: What about the “Plant response rating, Barnyardgrass” value [15, 18] of the same compound?
Answer: 55

Question: And the “Plant response rating, Barnyardgrass” value [15, 19]?
Answer: 10

Question: And the “Plant response rating, Barnyardgrass” value [15, 20]?
Answer: 25

Question: And the “Plant response rating, Barnyardgrass” value [15, 21]?
Answer: 40

Question: What about the “Barnyardgrass plant response rating” value [15, 22] of the same compound?
Answer: 80

Question: What about the “Barnyardgrass plant response rating” value [15, 23] of the same compound?
Answer: 35
